From ChEMBL document CHEMBL5131511, “Design of artificial α-helical peptides targeting both gp41 deep pocket and subpocket as potent HIV-1 fusion inhibitors” (Eur J Med Chem, 2022)
Where a SMILES comes first, the peptide text is derived from it. [ ]: non-standard residue; d: D form. The star is where a group is joined. O(cholesteryl) = CC(C)CCC[C@@H](C)[C@H]1CC[C@H]2[C@@H]3CC=C4C[C@@H](O*)CC[C@]4(C)[C@H]3CC[C@]12C; PEG24 = NCCOCCOCCOCCOCCOCCOCCOCCOCCOCCOCCOCCOCCOCCOCCOCCOCCOCCOCCOCCOCCOCCOCCOCCOCCC(=O)O; PEG12 = NCCOCCOCCOCCOCCOCCOCCOCCOCCOCCOCCOCCOCCC(=O)O; PEG8 = NCCOCCOCCOCCOCCOCCOCCOCCOCCC(=O)O; PEG4 = NCCOCCOCCOCCOCCC(=O)O

Assays:
[1] = system: Human immunodeficiency virus 1; assay: Antiviral activity against HIV-1 IIIB assessed as inhibition of viral replication measured after 4 days by ELISA; type: functional, organism-based; details: Human immunodeficiency virus 1, IIIB, 96 h
[2] = Alpha-helicity of compound in PBS buffer at pH 7.4 at 10 uM incubated for 30 mins by CD spectroscopy relative to control; type: physicochemical; details: pH 7.4, 0.5 h
[3] = system: Human immunodeficiency virus 1; assay: Binding affinity to HIV1 gp41 NHR target surrogate N36 assessed as alpha-helicity at 10 uM incubated for 30 mins by CD spectroscopy (reference value: 26 %)
[4] = system: Human immunodeficiency virus 1; assay: Binding affinity to HIV1 gp41 NHR target surrogate T21 assessed as alpha-helicity at 10 uM incubated for 30 mins by CD spectroscopy (reference value: 66 %)
[5] = system: Human immunodeficiency virus 1; assay: Binding affinity to HIV1 gp41 NHR target surrogate N36 assessed as melting temperature at 10 uM incubated for 30 mins by CD spectroscopy
[6] = system: Human immunodeficiency virus 1; assay: Binding affinity to HIV1 gp41 NHR target surrogate T21 assessed as melting temperature at 10 uM incubated for 30 mins by CD spectroscopy
[7] = Cytotoxicity against human CEMx174 5.25M7 cells upto 10 uM incubated for 48 hrs by CCK-8 assay; type: toxicity, cell-based; details: cemx174 5.25m7, 48 h
[8] = system: MT2; assay: Cytotoxicity against human MT2 cells upto 10 uM incubated for 48 hrs by CCK-8 assay; type: toxicity, cell-based; details: mt2, 48 h
[9] = system: Human immunodeficiency virus 1; assay: Antiviral activity against T20-sensitive HIV-1 D36G assessed as inhibition of viral replication measured after 4 days by ELISA; type: functional, organism-based
[10] = system: Human immunodeficiency virus 1; assay: Antiviral activity against T20-resistant HIV-1 V38E/N42S assessed as inhibition of viral replication measured after 4 days by ELISA; type: functional, organism-based
[11] = system: Human immunodeficiency virus 1; assay: Antiviral activity against T20-resistant HIV-1 V38A/N42T assessed as inhibition of viral replication measured after 4 days by ELISA; type: functional, organism-based
[12] = system: Human immunodeficiency virus 1; assay: Binding affinity to HIV1 gp41 NHR target surrogate T21 assessed as sedimentation coefficient incubated for 30 mins measured for 0.16 to 7 hrs by Sedimentation velocity analysis; details: time 0.56-7.5 hrs
[13] = system: Human immunodeficiency virus 1; assay: Inhibition of HIV-1 replication assessed as inhibition of gp41 six-helix bundle formation between T21 and CP32 incubated for 30 mins followed by CP32 addition measured after 30 mins by N-PAGE analysis; type: functional; details: dose <= 120.0 µM, time 1.0 hrs, DDE = dose-dependent effect
[14] = Selectivity ratio of EC50 for antiviral activity against T20-resistant HIV-1 V38E/N42S to EC50 for antiviral activity against T20-sensitive HIV-1 D36G; type: functional
[15] = Selectivity ratio of EC50 for antiviral activity against T20-resistant HIV-1 V38A/N42T to EC50 for antiviral activity against T20-sensitive HIV-1 D36G; type: functional
[16] = system: Human immunodeficiency virus 1; assay: Antiviral activity against HIV-1 IIIB (B, X4) assessed as inhibition of viral replication measured after 4 days by ELISA; type: functional, organism-based; details: Human immunodeficiency virus 1, IIIB (B, X4), 96 h

## CC[C@H](C)[C@H](NC(=O)[C@H](CO)NC(=O)[C@H](CCC(=O)O)NC(=O)[C@H](CCC(=O)O)NC(=O)[C@H](CCC(N)=O)NC(C)=O)C(=O)N[C@@H](CCCCN)C(=O)N[C@@H](CCCCN)C(=O)N[C@@H](Cc1c[nH]c2ccccc12)C(=O)N[C@@H](CCC(=O)O)C(=O)N[C@@H](CCC(=O)O)C(=O)N[C@@H](Cc1c[nH]c2ccccc12)C(=O)N[C@@H](CO)C(=O)N[C@@H](CCCCN)C(=O)N[C@@H](CCCCN)C(=O)N[C@H](C(=O)N[C@@H](CCC(=O)O)C(=O)N[C@@H](CCC(=O)O)C(=O)N[C@@H](CC(C)C)C(=O)N[C@H](C(=O)N[C@@H](CCCCN)C(=O)N[C@@H](CCCCN)C(=O)N[C@@H](CO)C(=O)N[C@@H](CCC(=O)O)C(=O)N[C@@H](CCC(=O)O)C(=O)N[C@@H](CC(C)C)C(=O)N[C@H](C(=O)N[C@@H](CCCCN)C(=O)N[C@@H](CCCCN)C(=O)N[C@H](C(=O)N[C@@H](CCC(=O)O)C(=O)N[C@@H](CCC(=O)O)C(=O)N[C@@H](CCC(N)=O)C(=O)N[C@H](C(=O)N[C@@H](CCCCN)C(=O)N[C@@H](CCCCN)C(=O)N[C@@H](CS)C(=O)O[C@H]1CC[C@@]2(C)C(=CC[C@H]3[C@@H]4CC[C@H]([C@H](C)CCCC(C)C)[C@@]4(C)CC[C@@H]32)C1)[C@@H](C)CC)[C@@H](C)CC)[C@@H](C)CC)[C@@H](C)CC)[C@@H](C)CC (Ac-QEESIKKWEEWSKKIEELIKKSEELIKKIEEQIKKC-{O(cholesteryl)})
[1]
  EC50: > 500 nM

## CC[C@H](C)[C@H](NC(=O)[C@H](CCC(N)=O)NC(=O)[C@H](CCC(=O)O)NC(=O)[C@H](CCC(=O)O)NC(=O)[C@@H](NC(=O)[C@H](CCCCN)NC(=O)[C@H](CCCCN)NC(=O)[C@@H](NC(=O)[C@H](CC(C)C)NC(=O)[C@H](CCC(=O)O)NC(=O)[C@H](CCC(=O)O)NC(=O)[C@H](CO)NC(=O)[C@H](CCCCN)NC(=O)[C@H](CCCCN)NC(=O)[C@@H](NC(=O)[C@H](CC(C)C)NC(=O)[C@H](CCC(=O)O)NC(=O)[C@H](CCC(=O)O)NC(=O)[C@@H](NC(=O)[C@H](CCCCN)NC(=O)[C@H](CCCCN)NC(=O)[C@H](CO)NC(=O)[C@H](Cc1c[nH]c2ccccc12)NC(=O)[C@H](CCC(=O)O)NC(=O)[C@H](CCC(=O)O)NC(=O)[C@H](Cc1c[nH]c2ccccc12)NC(=O)[C@H](CCCCN)NC(=O)[C@H](CCCCN)NC(=O)[C@@H](NC(=O)[C@H](CO)NC(=O)[C@H](CCC(=O)O)NC(=O)[C@H](CCC(=O)O)NC(=O)[C@H](CCC(N)=O)NC(C)=O)[C@@H](C)CC)[C@@H](C)CC)[C@@H](C)CC)[C@@H](C)CC)[C@@H](C)CC)C(=O)N[C@@H](CCCCN)C(=O)N[C@@H](CCCCN)C(=O)NCCOCCOCCOCCOCCC(=O)N[C@@H](CS)C(=O)O[C@H]1CC[C@@]2(C)C(=CC[C@H]3[C@@H]4CC[C@H]([C@H](C)CCCC(C)C)[C@@]4(C)CC[C@@H]32)C1 (Ac-QEESIKKWEEWSKKIEELIKKSEELIKKIEEQIKK[PEG4]C-{O(cholesteryl)})
[1]
  EC50: 44.4 nM

## CC[C@H](C)[C@H](NC(=O)[C@H](CCC(N)=O)NC(=O)[C@H](CCC(=O)O)NC(=O)[C@H](CCC(=O)O)NC(=O)[C@@H](NC(=O)[C@H](CCCCN)NC(=O)[C@H](CCCCN)NC(=O)[C@@H](NC(=O)[C@H](CC(C)C)NC(=O)[C@H](CCC(=O)O)NC(=O)[C@H](CCC(=O)O)NC(=O)[C@H](CO)NC(=O)[C@H](CCCCN)NC(=O)[C@H](CCCCN)NC(=O)[C@@H](NC(=O)[C@H](CC(C)C)NC(=O)[C@H](CCC(=O)O)NC(=O)[C@H](CCC(=O)O)NC(=O)[C@@H](NC(=O)[C@H](CCCCN)NC(=O)[C@H](CCCCN)NC(=O)[C@H](CO)NC(=O)[C@H](Cc1c[nH]c2ccccc12)NC(=O)[C@H](CCC(=O)O)NC(=O)[C@H](CCC(=O)O)NC(=O)[C@H](Cc1c[nH]c2ccccc12)NC(=O)[C@H](CCCCN)NC(=O)[C@H](CCCCN)NC(=O)[C@@H](NC(=O)[C@H](CO)NC(=O)[C@H](CCC(=O)O)NC(=O)[C@H](CCC(=O)O)NC(=O)[C@H](CCC(N)=O)NC(C)=O)[C@@H](C)CC)[C@@H](C)CC)[C@@H](C)CC)[C@@H](C)CC)[C@@H](C)CC)C(=O)N[C@@H](CCCCN)C(=O)N[C@@H](CCCCN)C(=O)NCCOCCOCCOCCOCCOCCOCCOCCOCCC(=O)N[C@@H](CS)C(=O)O[C@H]1CC[C@@]2(C)C(=CC[C@H]3[C@@H]4CC[C@H]([C@H](C)CCCC(C)C)[C@@]4(C)CC[C@@H]32)C1 (Ac-QEESIKKWEEWSKKIEELIKKSEELIKKIEEQIKK[PEG8]C-{O(cholesteryl)})
[1]
  EC50: 21.2 nM

## CC[C@H](C)[C@H](NC(=O)[C@H](CCC(N)=O)NC(=O)[C@H](CCC(=O)O)NC(=O)[C@H](CCC(=O)O)NC(=O)[C@@H](NC(=O)[C@H](CCCCN)NC(=O)[C@H](CCCCN)NC(=O)[C@@H](NC(=O)[C@H](CC(C)C)NC(=O)[C@H](CCC(=O)O)NC(=O)[C@H](CCC(=O)O)NC(=O)[C@H](CO)NC(=O)[C@H](CCCCN)NC(=O)[C@H](CCCCN)NC(=O)[C@@H](NC(=O)[C@H](CC(C)C)NC(=O)[C@H](CCC(=O)O)NC(=O)[C@H](CCC(=O)O)NC(=O)[C@@H](NC(=O)[C@H](CCCCN)NC(=O)[C@H](CCCCN)NC(=O)[C@H](CO)NC(=O)[C@H](Cc1c[nH]c2ccccc12)NC(=O)[C@H](CCC(=O)O)NC(=O)[C@H](CCC(=O)O)NC(=O)[C@H](Cc1c[nH]c2ccccc12)NC(=O)[C@H](CCCCN)NC(=O)[C@H](CCCCN)NC(=O)[C@@H](NC(=O)[C@H](CO)NC(=O)[C@H](CCC(=O)O)NC(=O)[C@H](CCC(=O)O)NC(=O)[C@H](CCC(N)=O)NC(C)=O)[C@@H](C)CC)[C@@H](C)CC)[C@@H](C)CC)[C@@H](C)CC)[C@@H](C)CC)C(=O)N[C@@H](CCCCN)C(=O)N[C@@H](CCCCN)C(=O)NCCOCCOCCOCCOCCOCCOCCOCCOCCOCCOCCOCCOCCC(=O)N[C@@H](CS)C(=O)O[C@H]1CC[C@@]2(C)C(=CC[C@H]3[C@@H]4CC[C@H]([C@H](C)CCCC(C)C)[C@@]4(C)CC[C@@H]32)C1 (Ac-QEESIKKWEEWSKKIEELIKKSEELIKKIEEQIKK[PEG12]C-{O(cholesteryl)})
[1]
  EC50: 5.22 nM

## CC[C@H](C)[C@H](NC(=O)[C@H](CCC(N)=O)NC(=O)[C@H](CCC(=O)O)NC(=O)[C@H](CCC(=O)O)NC(=O)[C@@H](NC(=O)[C@H](CCCCN)NC(=O)[C@H](CCCCN)NC(=O)[C@@H](NC(=O)[C@H](CC(C)C)NC(=O)[C@H](CCC(=O)O)NC(=O)[C@H](CCC(=O)O)NC(=O)[C@H](CO)NC(=O)[C@H](CCCCN)NC(=O)[C@H](CCCCN)NC(=O)[C@@H](NC(=O)[C@H](CC(C)C)NC(=O)[C@H](CCC(=O)O)NC(=O)[C@H](CCC(=O)O)NC(=O)[C@@H](NC(=O)[C@H](CCCCN)NC(=O)[C@H](CCCCN)NC(=O)[C@H](CO)NC(=O)[C@H](Cc1c[nH]c2ccccc12)NC(=O)[C@H](CCC(=O)O)NC(=O)[C@H](CCC(=O)O)NC(=O)[C@H](Cc1c[nH]c2ccccc12)NC(=O)[C@H](CCCCN)NC(=O)[C@H](CCCCN)NC(=O)[C@@H](NC(=O)[C@H](CO)NC(=O)[C@H](CCC(=O)O)NC(=O)[C@H](CCC(=O)O)NC(=O)[C@H](CCC(N)=O)NC(C)=O)[C@@H](C)CC)[C@@H](C)CC)[C@@H](C)CC)[C@@H](C)CC)[C@@H](C)CC)C(=O)N[C@@H](CCCCN)C(=O)N[C@@H](CCCCN)C(=O)NCCOCCOCCOCCOCCOCCOCCOCCOCCOCCOCCOCCOCCOCCOCCOCCOCCOCCOCCOCCOCCOCCOCCOCCOCCC(=O)N[C@@H](CS)C(=O)O[C@H]1CC[C@@]2(C)C(=CC[C@H]3[C@@H]4CC[C@H]([C@H](C)CCCC(C)C)[C@@]4(C)CC[C@@H]32)C1 (Ac-QEESIKKWEEWSKKIEELIKKSEELIKKIEEQIKK[PEG24]C-{O(cholesteryl)})
[2]
  Activity: 56%
[3]
  Activity: 81%
[4]
  Activity: 94%
[5]
  Tm: 50 °C
[6]
  Tm: 68 °C
[1]
  EC50: 5.21 nM
[7]
  Activity: Non-Toxic
[8]
  Activity: Non-Toxic
[9]
  EC50: 1.62 nM
[10]
  EC50: 5.07 nM
[11]
  EC50: 2.38 nM
[12]
  S20,w: 2.43 S
[13]
  inhibition: Dde
[14]
  Ratio EC50: 3.1
[15]
  Ratio EC50: 1.5

## Ac-QEENIKKWEEWDKKIEELIKKSEELIKKIEEQIKK-NH2
[16]
  EC50: 65.7 nM
